Data: patent publication US4495358A, “Antibiotic pyrrolomycin E” (Meiji Seika Kaisha, Ltd., priority 1981, dated 1985)
Values after ≈ are worked out from the molar mass of the structure shown.

Assays:
[1] = Nature of the substance (acidity); format: physicochemical
Salmonella typhi 0-901-W = test: Minimum inhibitory concentration, agar dilution method; format: cell-based; settings: Salmonella enterica, read-out: Minimum Inhibitory Concentration
Source text: (§1) The physical and chemical properties and the minimum inhibitory concentration against various microorganisms as measured by agar dilution method of pyrrolomycin E as obtained by the above-described method are as follows: […]

Proteus vulgaris OX-19 = test: as above; format: cell-based; settings: OX19
Source text: as §1

[2] = test system: Klebsiella pneumoniae PCI-602; test: as above; format: cell-based; settings: PCI602
Source text: as §1

[3] = test system: Pseudomonas aeruginosa IAM 1007; test: as above; format: cell-based; settings: IAM1007
Source text: as §1

[4] = test system: Serratia marcescens No. 1; test: as above; format: cell-based
Source text: as §1

[5] = test system: Escherichia coli NIHJ JC-2; test: as above; format: cell-based; settings: NIHJJC2
Source text: as §1

[6] = test system: Bacillus subtilis ATCC 6633; test: as above; format: cell-based; settings: ATCC6633
Source text: as §1

[7] = test system: Staphylococcus aureus Smith; test: as above; format: cell-based
Source text: as §1

[8] = test system: Escherichia coli W 3630 RGN823; test: as above; format: cell-based; settings: W3630RGN823, read-out: Minimum Inhibitory Concentration
Source text: as §1

[9] = test system: Staphylococcus epidermidis ATCC 14990; test: as above; format: cell-based; settings: ATCC14990
Source text: as §1

[10] = test system: Staphylococcus aureus FDA209PJC-1; test: as above; format: cell-based; settings: FDA209PJC1
Source text: as §1

Solubility = format: physicochemical
mice = settings: mouse, in vivo, ip, 10 mg/kg

O=[N+]([O-])c1cc(Cl)[nH]c1-c1cc(Cl)cc(Cl)c1O [pyrrolomycin E]
acidity of the substance [1]: Weak acidic substance | MIC (Salmonella typhi 0-901-W): > 100 µg/mL | MIC (Proteus vulgaris OX-19): 6.25 µg/mL (≈ 20.3 µM) | MIC [2]: > 100 µg/mL | MIC [3]: > 100 µg/mL | MIC [4]: > 100 µg/mL | MIC [5]: > 100 µg/mL | MIC [6]: 0.025 µg/mL (≈ 0.0813 µM) | MIC [7]: 1.56 µg/mL (≈ 5.07 µM) | MIC [8]: 12.5 µg/mL (≈ 40.6 µM) | MIC [9]: 1.56 µg/mL (≈ 5.07 µM) | MIC [10]: 1.56 µg/mL (≈ 5.07 µM) | Solubility (Solubility; acetone): Soluble | Solubility (Solubility; ethyl acetate): Soluble | Solubility (Solubility; methanol): Soluble | Solubility (Solubility; n-hexane): sparingly soluble | Solubility (Solubility; water): sparingly soluble | acute toxicity (survival) (mice): All mice survived
